# Test results reported in BindingDB's records for doi:10.1021/jm00124a025 (Smith Kline & French Laboratories, 1989).
# pKi: −log10 of the molar value.
# Target: Vasopressin V2 receptor (Canis lupus familiaris)
# Experiment: Binding affinity of compound towards Vasopressin receptor by binding [3H]LVP to dog renal medullary preparation.
row,pKi,SMILES
1,9.15,"CCOc1ccc(C[C@@H]2NC(=O)CC3(CCC(C)CC3)SSC[C@H](C(=O)N[C@@H](CCCN=C(N)N)C(=O)N[C@@H](CCCN=C(N)N)C(N)=O)NC(=O)[C@H](CC(N)=O)NC(=O)[C@H](C(C)C)NC(=O)[C@H](Cc3ccccc3)NC2=O)cc1 (some centres not stated) [19-Benzyl-13-carbamoylmethyl-22-(4-ethoxy-benzyl)-16-isopropyl-3-methyl-12,15,18,21,24-pentaoxo-7,8-dithia-11,14,17,20,23-pentaaza-spiro[5.19]pentacosane-10-carboxylic acid [1-(1-carbamoyl-4-guanidino-butylcarbamoyl)-4-guanidino-butyl]-amide]"
2,9.30,"CCOc1ccc(C[C@@H]2NC(=O)CC3(CCCCC3)SSC[C@H](C(=O)N[C@@H](CCCN=C(N)N)C(=O)N[C@@H](CCCN=C(N)N)C(N)=O)NC(=O)[C@@H](CC(N)=O)NC(=O)[C@H](C(C)C)NC(=O)[C@@H](Cc3ccccc3)NC2=O)cc1 [19-Benzyl-13-carbamoylmethyl-22-(4-ethoxy-benzyl)-16-isopropyl-12,15,18,21,24-pentaoxo-7,8-dithia-11,14,17,20,23-pentaaza-spiro[5.19]pentacosane-10-carboxylic acid [1-(1-carbamoyl-4-guanidino-butylcarbamoyl)-4-guanidino-butyl]-amide]"
